{"source": "patent US11731986B2", "about": "(Sanford Burnham Prebys Medical Discovery Institute, priority 2017, dated 2023)", "target": "T1, human LMPTP-A (Homo sapiens, UniProt P24666)", "T1 sequence (P24666 1-158)": "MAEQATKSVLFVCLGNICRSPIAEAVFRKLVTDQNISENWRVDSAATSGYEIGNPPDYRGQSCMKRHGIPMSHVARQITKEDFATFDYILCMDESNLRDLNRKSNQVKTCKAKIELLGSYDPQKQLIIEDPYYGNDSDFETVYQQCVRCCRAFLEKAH", "assay": "Enzyme Assay of Inhibition of LMPTP-A (phosphatase assay, OMFP or pNPP substrate)", "assay_type": "biochemical", "settings": "Bis-Tris pH 6.0, 37° C.", "procedure": "Phosphatase assays were performed in buffer containing 50 mM Bis-Tris, pH 6.0, 1 mM DTT and 0.01% Triton X-100 at 37° C. For assays conducted with 3-O-methylfluorescein phosphate (OMFP) as substrate, fluorescence was monitored continuously at λex=485 and λem=525 nm. For assays conducted with para-nitrophenylphosphate (pNPP) as substrate, the reaction was stopped by addition of 2× reaction volume of 1 M NaOH, and absorbance was measured at 405 nm. IC50 values of compounds of Formula (I), (II), (III), or (IV) were determined from plots of inhibitor concentration versus percentage of enzyme activity. For inhibitor selectivity assays, each PTP was incubated with either 0.4 mM OMFP or 5 mM pNPP in the presence of 40 μM compound or DMSO. […] For the inhibitor reversibility assay, 50 nM human LMPTP-A was pre-incubated with 10 μM of compound of Formula (I), (II), (III), or (IV) or DMSO for 5 min. The enzyme was diluted 100× in phosphatase assay buffer containing 0.4 mM OMFP and fluorescence was measured at the indicated time points.", "data": [{"smiles": "CCN(CC)C(=O)c1ccc(-c2cc(NCCCN3CCS(=O)(=O)CC3)c3cnccc3n2)cc1", "note": "[4-(4-((3-(1,1-Dioxidothiomorpholino)propyl)amino)-1,6-naphthyridin-2-yl)-N,N-diethylbenzamide]", "values": [{"measurement": "IC50", "result": "1 to 20", "unit": "µM"}]}, {"smiles": "O=C(NCCc1ccncc1)c1ccc(-c2cc(NCCCN3CCCCC3)c3cnccc3n2)cc1", "note": "[4-(4-((3-(piperidin-1-yl)propyl)amino)-1,6-naphthyridin-2-yl)-N-(2-(pyridin-4-yl)ethyl)benzamide]", "values": [{"measurement": "IC50", "result": "≤ 1", "unit": "µM"}]}, {"smiles": "O=C(NC1CCNCC1)c1ccc(-c2cc(NCCCN3CCCCC3)c3cnccc3n2)c(C(F)(F)F)c1", "note": "[4-(4-((3-(piperidin-1-yl)propyl)amino)-1,6-naphthyridin-2-yl)-N-(piperidin-4-yl)-3-(trifluoromethyl)benzamide]", "values": [{"measurement": "IC50", "result": "1 to 20", "unit": "µM"}]}, {"smiles": "O=C(NC1CCNCC1)c1ccc(-c2cc(NCCCN3CCCCC3)c3cnccc3n2)cc1", "note": "[4-(4-((3-(piperidin-1-yl)propyl)amino)-1,6-naphthyridin-2-yl)-N-(piperidin-4-yl)benzamide]", "values": [{"measurement": "IC50", "result": "≤ 1", "unit": "µM"}]}, {"smiles": "O=C(O)c1ccc(-c2cc(NCCCN3CCCCC3)c3cnccc3n2)cc1", "note": "[4-(4-((3-(piperidin-1-yl)propyl)amino)-1,6-naphthyridin-2-yl)benzoic acid]", "values": [{"measurement": "IC50", "result": "≤ 1", "unit": "µM"}]}, {"smiles": "CCN(CC)C(=O)c1ccc(-c2cc(NCCCN3CCCCC3)c3cncc(Br)c3n2)cc1", "note": "[4-(8-Bromo-4-((3-(piperidin-1-yl)propyl)amino)-1,6-naphthyridin-2-yl)-N,N-diethylbenzamide]", "values": [{"measurement": "IC50", "result": "≥ 20", "unit": "µM"}]}, {"smiles": "CN1CCC(NC(=O)c2ccc(-c3cc(NCCCN4CCCCC4)c4cncc(Br)c4n3)cc2)CC1", "note": "[4-(8-Bromo-4-((3-(piperidin-1-yl)propyl)amino)-1,6-naphthyridin-2-yl)-N-(1-methylpiperidin-4-yl)benzamide]", "values": [{"measurement": "IC50", "result": "≥ 20", "unit": "µM"}]}, {"smiles": "Cc1cncc2c(NCCCN3CCCCC3)cc(-c3ccc(C(=O)NC4CCN(C)CC4)cc3)nc12", "note": "[4-(8-Methyl-4-((3-(piperidin-1-yl)propyl)amino)-1,6-naphthyridin-2-yl)-N-(1-methylpiperidin-4-yl)benzamide]", "values": [{"measurement": "IC50", "result": "≥ 20", "unit": "µM"}]}, {"smiles": "Cc1cncc2c(NCCCN3CCCCC3)cc(-c3ccc(C(=O)NCCCN4CCCCC4)cc3)nc12", "note": "[4-(8-Methyl-4-((3-(piperidin-1-yl)propyl)amino)-1,6-naphthyridin-2-yl)-N-(3-(piperidin-1-yl)propyl)benzamide]", "values": [{"measurement": "IC50", "result": "≥ 20", "unit": "µM"}]}, {"smiles": "N#Cc1c(-c2cc(NCCCN3CCCCC3)c3cnccc3n2)ccc2[nH]c(C(=O)NC3CCNCC3)nc12", "note": "[4-cyano-5-(4-((3-(piperidin-1-yl)propyl)amino)-1,6-naphthyridin-2-yl)-N-(piperidin-4-yl)-1H-benzo[d]imidazole-2-carboxamide]", "values": [{"measurement": "IC50", "result": "1 to 20", "unit": "µM"}]}, {"smiles": "O=C(NCCc1ccncc1)c1nc2cc(-c3cc(NCCCN4CCCCC4)c4cnccc4n3)ccc2[nH]1", "note": "[5-(4-((3-(piperidin-1-yl)propyl)amino)-1,6-naphthyridin-2-yl)-N-(2-(pyridin-4-yl)ethyl)-1H-benzo[d]imidazole-2-carboxamide]", "values": [{"measurement": "IC50", "result": "≤ 1", "unit": "µM"}]}, {"smiles": "O=C(NC1CCNCC1)c1nc2cc(-c3cc(NCCCN4CCCCC4)c4cnccc4n3)ccc2[nH]1", "note": "[5-(4-((3-(piperidin-1-yl)propyl)amino)-1,6-naphthyridin-2-yl)-N-(piperidin-4-yl)-1H-benzo[d]imidazole-2-carboxamide]", "values": [{"measurement": "IC50", "result": "≤ 1", "unit": "µM"}]}, {"smiles": "CCNc1cc(-c2ccc3c(c2)cc(C(=O)NC2CCN(C)CC2)n3C)nc2ccncc12", "note": "[5-(4-(ethylamino)-1,6-naphthyridin-2-yl)-1-methyl-N-(1-methylpiperidin-4-yl)-1H-indole-2-carboxamide]", "values": [{"measurement": "IC50", "result": "≤ 1", "unit": "µM"}]}, {"smiles": "CCNc1cc(-c2ccc3[nH]c(C(=O)NCCCN4CCCCC4)nc3c2)nc2ccncc12", "note": "[5-(4-(ethylamino)-1,6-naphthyridin-2-yl)-N-(3-(piperidin-1-yl)propyl)-1H-benzo[d]imidazole-2-carboxamide]", "values": [{"measurement": "IC50", "result": "1 to 20", "unit": "µM"}]}, {"smiles": "CNc1cc(-c2ccc3[nH]c(C(=O)NCCCN4CCCCC4)nc3c2)nc2ccncc12", "note": "[5-(4-(methylamino)-1,6-naphthyridin-2-yl)-N-(3-(piperidin-1-yl)propyl)-1H-benzo[d]imidazole-2-carboxamide]", "values": [{"measurement": "IC50", "result": "1 to 20", "unit": "µM"}]}, {"smiles": "COc1cc(-c2ccc3c(c2)cc(C(=O)NC2CCN(C)CC2)n3C)nc2ccncc12", "note": "[5-(4-methoxy-1,6-naphthyridin-2-yl)-1-methyl-N-(1-methylpiperidin-4-yl)-1H-indole-2-carboxamide]", "values": [{"measurement": "IC50", "result": "≥ 20", "unit": "µM"}]}, {"smiles": "O=C(NC1CCNCC1)c1cc2ccc(-c3cc(NCCCN4CCCCC4)c4cnccc4n3)cc2[nH]1", "note": "[6-(4-(3-(Piperidin-1-yl)propylamino)-1,6-naphthyridin-2-yl)-N-(piperidin-4-yl)-1H-indole-2-carboxamide]", "values": [{"measurement": "IC50", "result": "1 to 20", "unit": "µM"}]}, {"smiles": "O=C(NC1CCNCC1)c1cc2ccc(-c3cc(NCCCN4CCCCC4)c4cnccc4n3)cc2s1", "note": "[6-(4-(3-(piperidin-1-yl)propylamino)-1,6-naphthyridin-2-yl)-N-(piperidin-4-yl)benzo[b]thiophene-2-carboxamide]", "values": [{"measurement": "IC50", "result": "≤ 1", "unit": "µM"}]}, {"smiles": "CN1CCC(Nc2cc(-c3ccc4c(c3)cc(C(=O)N3CCN(C)CC3)n4C)nc3ccncc23)CC1", "note": "[(1-Methyl-5-(4-((1-methylpiperidin-4-yl)amino)-1,6-naphthyridin-2-yl)-1H-indol-2-yl)(4-methylpiperazin-1-yl)methanone]", "values": [{"measurement": "IC50", "result": "≤ 1", "unit": "µM"}]}, {"smiles": "CCN1CCN(C(=O)c2nc3cc(-c4cc(NCCCN5CCCCC5)c5cnccc5n4)ccc3n2CC)CC1", "note": "[(1-ethyl-5-(4-((3-(piperidin-1-yl)propyl)amino)-1,6-naphthyridin-2-yl)-1H-benzo[d]imidazol-2-yl)(4-ethylpiperazin-1-yl)methanone]", "values": [{"measurement": "IC50", "result": "≤ 1", "unit": "µM"}]}, {"smiles": "CN1CCN(C(=O)c2cc3cc(-c4cc(NCc5ccc(CN6CCCCC6)cc5)c5cnccc5n4)ccc3n2C)CC1", "note": "[(1-methyl-5-(4-(4-(piperidin-1-ylmethyl)benzylamino)-1,6-naphthyridin-2-yl)-1H-indol-2-yl)(4-methylpiperazin-1-yl)methanone]", "values": [{"measurement": "IC50", "result": "≤ 1", "unit": "µM"}]}, {"smiles": "CCN1CCN(C(=O)c2cc3ccc(-c4cc(NCCCN5CCCCC5)c5cnccc5n4)cc3[nH]2)CC1", "note": "[(4-Ethylpiperazin-1-yl)(6-(4-(3-(piperidin-1-yl)propylamino)-1,6-naphthyridin-2-yl)-1H-indol-2-yl)methanone]", "values": [{"measurement": "IC50", "result": "≤ 1", "unit": "µM"}]}, {"smiles": "CCN1CCN(C(=O)c2nc3cc(-c4cc(NCCCN5CCCCC5)c5cnccc5n4)ccc3[nH]2)CC1", "note": "[(4-ethylpiperazin-1-yl)(5-(4-((3-(piperidin-1-yl)propyl)amino)-1,6-naphthyridin-2-yl)-1H-benzo[d]imidazol-2-yl)methanone]", "values": [{"measurement": "IC50", "result": "≤ 1", "unit": "µM"}]}, {"smiles": "CCN1CCN(C(=O)c2nc3cc(-c4cc(Nc5ccc(CN6CCCC6)cc5)c5cnccc5n4)ccc3[nH]2)CC1", "note": "[(4-ethylpiperazin-1-yl)(5-(4-((4-(pyrrolidin-1-ylmethyl)phenyl)amino)-1,6-naphthyridin-2-yl)-1H-benzo[d]imidazol-2-yl)methanone]", "values": [{"measurement": "IC50", "result": "≥ 20", "unit": "µM"}]}, {"smiles": "CCN1CCN(C(=O)c2cc3ccc(-c4cc(NCCCN5CCCCC5)c5cnccc5n4)cc3s2)CC1", "note": "[(4-ethylpiperazin-1-yl)(6-(4-(3-(piperidin-1-yl)propylamino)-1,6-naphthyridin-2-yl)benzo[b]thiophen-2-yl)methanone]", "values": [{"measurement": "IC50", "result": "1 to 20", "unit": "µM"}]}, {"smiles": "CN1CCN(C(=O)c2cc3ccc(-c4cc(NCCCN5CCCCC5)c5cnccc5n4)cc3s2)CC1", "note": "[(4-methylpiperazin-1-yl)(6-(4-(3-(piperidin-1-yl)propylamino)-1,6-naphthyridin-2-yl)benzo[b]thiophen-2-yl)methanone]", "values": [{"measurement": "IC50", "result": "≤ 1", "unit": "µM"}]}, {"smiles": "O=C(O)/C=C/c1ccc(-c2cc(NCCCN3CCCCC3)c3cnccc3n2)s1", "note": "[(E)-3-(5-(4-(3-(Piperidin-1-yl)propylamino)-1,6-naphthyridin-2-yl)thiophen-2-yl)acrylic acid]", "values": [{"measurement": "IC50", "result": "1 to 20", "unit": "µM"}]}, {"smiles": "CCN(CC)C(=O)/C=C/c1ccc(-c2cc(Nc3ccc(CN4CCCC4)cc3)c3cnccc3n2)cc1", "note": "[(E)-N,N-Diethyl-3-(4-(4-((4-(pyrrolidin-1-ylmethyl)phenyl)amino)-1,6-naphthyridin-2-yl)phenyl)acrylamide]", "values": [{"measurement": "IC50", "result": "1 to 20", "unit": "µM"}]}, {"smiles": "CCN(CC)C(=O)/C=C/c1ccc(-c2cc(NCCCN3CCCCC3)c3cnccc3n2)s1", "note": "[(E)-N,N-Diethyl-3-(5-(4-(3-(piperidin-1-yl)propylamino)-1,6-naphthyridin-2-yl)thiophen-2-yl)acrylamide]", "values": [{"measurement": "IC50", "result": "≥ 20", "unit": "µM"}]}, {"smiles": "CCN(CC)C(=O)/C=C/c1ccc(-c2cc(NCCCN3CCCCC3)c3cnccc3n2)o1", "note": "[(E)-N,N-Diethyl-3-(5-(4-((3-(piperidin-1-yl)propyl)amino)-1,6-naphthyridin-2-yl)furan-2-yl)acrylamide]", "values": [{"measurement": "IC50", "result": "1 to 20", "unit": "µM"}]}, {"smiles": "CN1CCC(NC(=O)/C=C/c2ccc(-c3cc(NCCCN4CCCCC4)c4cnccc4n3)cc2)CC1", "note": "[(E)-N-(1-Methylpiperidin-4-yl)-3-(4-(4-(3-(piperidin-1-yl)propylamino)-1,6-naphthyridin-2-yl)phenyl)acrylamide]", "values": [{"measurement": "IC50", "result": "≤ 1", "unit": "µM"}]}, {"smiles": "CN1CCC(NC(=O)/C=C/c2ccc(-c3cc(NCCCN4CCCCC4)c4cnccc4n3)s2)CC1", "note": "[(E)-N-(1-Methylpiperidin-4-yl)-3-(5-(4-(3-(piperidin-1-yl)propylamino)-1,6-naphthyridin-2-yl)thiophen-2-yl)acrylamide]", "values": [{"measurement": "IC50", "result": "1 to 20", "unit": "µM"}]}, {"smiles": "CN1CCC(NC(=O)/C=C/c2ccc(-c3cc(NCCCN4CCCCC4)c4cnccc4n3)o2)CC1", "note": "[(E)-N-(1-Methylpiperidin-4-yl)-3-(5-(4-((3-(piperidin-1-yl)propyl)amino)-1,6-naphthyridin-2-yl)furan-2-yl)acrylamide]", "values": [{"measurement": "IC50", "result": "≥ 20", "unit": "µM"}]}]}
